Data from ChEMBL document CHEMBL5537181 (J Med Chem, 2024).
The source made the active and inactive calls.

How the values were obtained:
Format in all cases: functional, organism-based
Rattus norvegicus [1] = experiment: Analgesic activity in Chronic constriction injury rat model assessed as increase in paw withdrawal threshold at 30 mg/kg,po administration and measured for 0.5 to 48 hrs; conditions: time 0.5-48 hrs
Rattus norvegicus [2] = experiment: Analgesic activity in Chronic constriction injury rat model assessed as increase in paw withdrawal latency at 30 mg/kg,po administration and measured for 0.5 to 48 hrs; conditions: time 0.5-48 hrs
Rattus norvegicus [3] = experiment: Antinociceptive activity in Chronic constriction injury rat model assessed as reduction in pain at 5 mg/kg,IM administration and measured after 12 hrs
Rattus norvegicus [4] = experiment: Analgesic activity in Chronic constriction injury rat model assessed as increase in paw withdrawal threshold at 5 mg/kg,IM administration and measured for 0.5 to 48 hrs; conditions: time 0.5-48 hrs
Rattus norvegicus [5] = experiment: Analgesic activity in Chronic constriction injury rat model assessed as increase in paw withdrawal latency at 5 mg/kg,IM administration and measured for 0.5 to 48 hrs; conditions: time 0.5-48 hrs
Rattus norvegicus [6] = experiment: Antinociceptive activity in Chronic constriction injury rat model assessed as reduction in pain at 5 mg/kg,IM administration and measured after 2 hrs

Measured: Activity

CC(C)C[C@H](CN)CC(=O)O
active: Rattus norvegicus [1] | Rattus norvegicus [2]

CN1CC[C@]23c4c5ccc(O)c4O[C@H]2[C@@H](O)C=C[C@H]3[C@H]1C5
active: Rattus norvegicus [3] | Rattus norvegicus [4] | Rattus norvegicus [5] | Rattus norvegicus [6]
